biological target: T1, PAR4 (Homo sapiens, UniProt Q96RI0); test: PAR4 FLIPR assay (antagonism of agonist peptide-induced calcium mobilization); assay type: cell-based
T1 construct: expressed in transfected cells; host or cells: HEK293 PAR4 Clone 1.2A (BMS Arctic ID 383940)
T1 sequence (Q96RI0 18-385): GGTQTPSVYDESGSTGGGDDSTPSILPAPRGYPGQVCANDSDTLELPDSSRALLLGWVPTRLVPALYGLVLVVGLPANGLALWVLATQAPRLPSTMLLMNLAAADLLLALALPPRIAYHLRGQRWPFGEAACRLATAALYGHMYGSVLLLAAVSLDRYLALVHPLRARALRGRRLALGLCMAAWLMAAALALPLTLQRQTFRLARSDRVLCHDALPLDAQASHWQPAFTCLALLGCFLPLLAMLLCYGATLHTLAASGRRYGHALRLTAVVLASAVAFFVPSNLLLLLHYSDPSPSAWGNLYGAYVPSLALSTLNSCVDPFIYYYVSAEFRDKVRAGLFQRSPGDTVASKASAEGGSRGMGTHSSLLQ
Procedure, shortened: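 Antagonism was taken as block of calcium mobilization evoked by the agonist peptide H-Ala-Phe(4-F)-Pro-Gly-Trp-Leu-Val-Lys-Asn-[…]-NH2, added after 30 min room-temperature compound preincubation in dye-loaded PAR4-transfected HEK293 cells (endogenous PAR1). Fluorescence was read on FDSS, with compound addition alone used as the agonist counter-screen; values come from 11-point concentration-response curves.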

IC50 [nM]	SMILES
4.3	COc1cnc2c(-c3nc4c(Cl)cc5c(c4s3)OC[C@H](COC(=O)Nc3cncc(C)c3)O5)cc(C)cc2n1 [Example 63]
2.5	COc1cnc2c(-c3nc4c(Cl)cc5c(c4s3)OC[C@H](COC(=O)Nc3cnc(F)c(C)c3)O5)cc(C)cc2n1 [Example 64, (R)-(4-chloro-2-(2-methoxy-7-methylquinoxalin-5-yl)-7,8-dihydro-[1,4]dioxino [2′,3′:3,4]benzo[1,2-d]thiazol-7-yl)methyl (6-fluoro-5-methylpyridin-3-yl)carbamate]
16	COc1cnc2c(-c3nc4c(Cl)cc5c(c4s3)OC[C@H](COC(=O)Nc3ccc(N(C)C)nc3)O5)cc(C)cc2n1 [Example 65, (R)-(4-chloro-2-(2-methoxy-7-methylquinoxalin-5-yl)-7,8-dihydro-[1,4]dioxino [2′,3′:3,4]benzo[1,2-d]thiazol-7-yl)methyl (6-(dimethylamino)pyridin-3-yl)carbamate]
1.5	COc1cnc2c(-c3nc4c(Cl)cc5c(c4s3)OC[C@H](COC(=O)Nc3ccc4[nH]c(=O)oc4c3)O5)cc(C)cc2n1 [Example 66, (R)-(4-chloro-2-(2-methoxy-7-methylquinoxalin-5-yl)-7,8-dihydro-[1,4]dioxino[2′,3′:3,4]benzo[1,2-d]thiazol-7-yl)methyl (2-oxo-2,3-dihydrobenzo[d]oxazol-6-yl)carbamate]
0.6	COc1cnc2c(-c3nc4c(Cl)cc5c(c4s3)OC[C@H](COC(=O)Nc3cnc4c(c3)ncn4C)O5)cc(C)cc2n1 [Example 67, (R)-(4-chloro-2-(2-methoxy-7-methylquinoxalin-5-yl)-7,8-dihydro-[1,4]dioxino[2′,3′:3,4]benzo[1,2-d]thiazol-7-yl)methyl (3-methyl-3H-imidazo[4,5-b]pyridin-6-yl)carbamate]
1.7	COc1cnc2c(-c3nc4c(Cl)cc5c(c4s3)OC[C@H](COC(=O)Nc3ccc(-n4cnc(C)n4)nc3)O5)cc(C)cc2n1 [Example 69, (R)-(4-chloro-2-(2-methoxy-7-methylquinoxalin-5-yl)-7,8-dihydro-[1,4]dioxino[2′,3′:3,4]benzo[1,2-d]thiazol-7-yl)methyl (6-(3-methyl-1H-1,2,4-triazol-1-yl)pyridin-3-yl) carbamate]
25	COc1cnc2c(-c3nc4c(F)cc5c(c4s3)OC[C@H](COC(=O)Nc3cccnc3)O5)cc(C)cc2n1 [Example 70, (R)-(4-fluoro-2-(2-methoxy-7-methylquinoxalin-5-yl)-7,8-dihydro-[1,4]dioxino[2′,3′:3,4]benzo[1,2-d]thiazol-7-yl)methyl pyridin-3-ylcarbamate]
2.9	COc1cnc2c(-c3nc4c(F)cc5c(c4s3)OC[C@H](COC(=O)Nc3ccc(F)nc3)O5)cc(C)cc2n1 [Example 71, (R)-(4-fluoro-2-(2-methoxy-7-methylquinoxalin-5-yl)-7,8-dihydro-[1,4]dioxino[2′,3′:3,4]benzo[1,2-d]thiazol-7-yl)methyl (6-fluoropyridin-3-yl)carbamate]
4.9	COc1cnc2c(-c3nc4c(F)cc5c(c4s3)OC[C@H](COC(=O)Nc3ccnc(C)c3)O5)cc(C)cc2n1 [Example 75, (R)-(4-fluoro-2-(2-methoxy-7-methylquinoxalin-5-yl)-7,8-dihydro-[1,4]dioxino[2′,3′:3,4]benzo[1,2-d]thiazol-7-yl)methyl (2-methylpyridin-4-yl)carbamate]
2.7	COc1cnc2c(-c3nc4c(F)cc5c(c4s3)OC[C@H](COC(=O)Nc3ccc(C)nc3)O5)cc(C)cc2n1 [Example 76, (R)-(4-fluoro-2-(2-methoxy-7-methylquinoxalin-5-yl)-7,8-dihydro-[1,4]dioxino[2′,3′:3,4]benzo[1,2-d]thiazol-7-yl)methyl (6-methylpyridin-3-yl)carbamate]
15	COc1cnc2c(-c3nc4c(C)cc5c(c4s3)OCC(COC(=O)Nc3cncc(C(N)=O)c3)O5)cc(C)cc2n1 (stereo not drawn) [Example 77, (2-(2-methoxy-7-methylquinoxalin-5-yl)-4-methyl-7,8-dihydro-[1,4]dioxino [2′,3′:3,4]benzo[1,2-d]thiazol-7-yl)methyl (5-carbamoylpyridin-3-yl)carbamate]
29	COc1cnc2c(-c3nc4c(C)cc5c(c4s3)OCC(COC(=O)Nc3cnc(C)nc3)O5)cc(C)cc2n1 (stereo not drawn) [Example 79, (2-(2-methoxy-7-methylquinoxalin-5-yl)-4-methyl-7,8-dihydro-[1,4]dioxino[2′,3′:3,4]benzo[1,2-d]thiazol-7-yl)methyl (2-methylpyrimidin-5-yl)carbamate]

Continued, compound first:

SMILES	IC50 [nM]
COc1ccc(NC(=O)OC[C@H]2COc3c(cc(F)c4nc(-c5cc(C)cc6nc(OC)cnc56)sc34)O2)cn1 [Example 68, (R)-(4-fluoro-2-(2-methoxy-7-methylquinoxalin-5-yl)-7,8-dihydro-[1,4]dioxino[2′,3′:3,4]benzo[1,2-d]thiazol-7-yl)methyl (6-methoxypyridin-3-yl)carbamate]	1
COc1cnc2c(-c3nc4c(F)cc5c(c4s3)OC[C@H](COC(=O)Nc3cccc(C#N)c3)O5)cc(C)cc2n1 [Example 72, (R)-(4-fluoro-2-(2-methoxy-7-methylquinoxalin-5-yl)-7,8-dihydro-[1,4]dioxino[2′,3′:3,4]benzo[1,2-d]thiazol-7-yl)methyl (3-cyanophenyl)carbamate]	7.7
COc1cnc2c(-c3nc4c(F)cc5c(c4s3)OC[C@H](COC(=O)Nc3ccncc3)O5)cc(C)cc2n1 [Example 73, (R)-(4-fluoro-2-(2-methoxy-7-methylquinoxalin-5-yl)-7,8-dihydro-[1,4]dioxino[2′,3′:3,4]benzo[1,2-d]thiazol-7-yl)methyl pyridin-4-ylcarbamate]	12
COc1cnc2c(-c3nc4c(C(F)F)cc5c(c4s3)OCC(COC(=O)Nc3ccnc(C)c3)O5)cc(C)cc2n1 (stereo not drawn) [Example 74, (4-(difluoromethyl)-2-(2-methoxy-7-methylquinoxalin-5-yl)-7,8-dihydro-[1,4]dioxino[2′,3′:3,4]benzo[1,2-d]thiazol-7-yl)methyl (2-methylpyridin-4-yl)carbamate]	8.6
COc1cnc2c(-c3nc4c(C)cc5c(c4s3)OCC(COC(=O)Nc3ccc4c(c3)C(=O)NCC4)O5)cc(C)cc2n1 (stereo not drawn) [Example 78, (2-(2-methoxy-7-methylquinoxalin-5-yl)-4-methyl-7,8-dihydro-[1,4]dioxino[2′,3′:3,4]benzo[1,2-d]thiazol-7-yl)methyl (1-oxo-1,2,3,4-tetrahydroisoquinolin-7-yl)carbamate]	8.6
COc1cnc2c(-c3nc4c(C(F)F)cc5c(c4s3)OC[C@H](COC(=O)Nc3ccc(C)nc3)O5)cc(C)cc2n1 [Example 80, (R)-(4-(difluoromethyl)-2-(2-methoxy-7-methylquinoxalin-5-yl)-7,8-dihydro-[1,4]dioxino[2′,3′:3,4]benzo[1,2-d]thiazol-7-yl)methyl (6-methylpyridin-3-yl)carbamate]	33
COc1ccc(NC(=O)OC[C@H]2COc3c(cc(C(F)F)c4nc(-c5cc(C)cc6nc(OC)cnc56)sc34)O2)cn1 [Example 81, (R)-(4-(difluoromethyl)-2-(2-methoxy-7-methylquinoxalin-5-yl)-7,8-dihydro-[1,4]dioxino[2′,3′:3,4]benzo[1,2-d]thiazol-7-yl)methyl (6-methoxypyridin-3-yl)carbamate]	39
COc1cnc2c(-c3nc4c(C)cc5c(c4s3)OCC(COC(=O)Nc3ccc4ocnc4c3)O5)cc(C)cc2n1 (stereo not drawn) [Example 82, (2-(2-methoxy-7-methylquinoxalin-5-yl)-4-methyl-7,8-dihydro-[1,4]dioxino[2′,3′:3,4]benzo[1,2-d]thiazol-7-yl)methyl benzo[d]oxazol-5-ylcarbamate]	55
COc1cnc2c(-c3nc4c(F)cc5c(c4s3)OC[C@H](COC(=O)Nc3cccnc3)O5)cc(CO)cc2n1 [Example 83, (R)-(4-fluoro-2-(7-(hydroxymethyl)-2-methoxyquinoxalin-5-yl)-7,8-dihydro-[1,4]dioxino [2′,3′:3,4]benzo[1,2-d]thiazol-7-yl)methyl pyridin-3-ylcarbamate]	29
COc1cnc2c(-c3nc4c(C)cc5c(c4s3)OC[C@H](COC(=O)Nc3ccnc(C)c3)O5)cc(C(F)F)cc2n1 [Example 84, (R)-(2-(7-(difluoromethyl)-2-methoxyquinoxalin-5-yl)-4-methyl-7,8-dihydro-[1,4]dioxino[2′,3′:3,4]benzo[1,2-d]thiazol-7-yl)methyl (2-methylpyridin-4-yl)carbamate]	33
COc1cnc2c(-c3nc4c(F)cc5c(c4s3)OC[C@H](COC(=O)Nc3ccnc(C)c3)O5)cc(CO)cc2n1 [Example 85, (R)-(4-fluoro-2-(7-(hydroxymethyl)-2-methoxyquinoxalin-5-yl)-7,8-dihydro-[1,4]dioxino [2′,3′:3,4]benzo[1,2-d]thiazol-7-yl)methyl (2-methylpyridin-4-yl)carbamate]	15
C=Cc1cc(-c2nc3c(C)cc4c(c3s2)OCC(COC(=O)Nc2ccc(OC)nc2)O4)c2ncc(OC)nc2c1 (stereo not drawn) [Example 86, (2-(2-methoxy-7-vinylquinoxalin-5-yl)-4-methyl-7,8-dihydro-[1,4]dioxino[2′,3′:3,4]benzo [1,2-d]thiazol-7-yl)methyl (6-methoxypyridin-3-yl)carbamate]	6.3

From patent US11932658B2 (BRISTOL-MYERS SQUIBB COMPANY, priority 2016, dated 2024)
